Reference: ChEMBL document CHEMBL3045644, “Synthesis anti-inflammatory and anticancer activity evaluation of some pyrazole and oxadiazole derivatives” (2012)

Columns and labels:
Type in all cases: functional
[1] = test system: HepG2; assay: Growth inhibition of Homo sapiens (human) HepG2 cells at 10 uM after 48 hr by SRB assay; conditions: HepG2, 48 h, read-out: GI
[2] = test system: HCT-15; assay: Growth inhibition of Homo sapiens (human) HCT15 cells at 10 uM after 48 hr by SRB assay; conditions: HCT-15, 48 h, read-out: GI
[3] = test system: T47D; assay: Growth inhibition of Homo sapiens (human) T47D cells at 10 uM after 48 hr by SRB assay; conditions: read-out: GI
[4] = test system: PA-1; assay: Growth inhibition of Homo sapiens (human) PA1 cells at 10 uM after 48 hr by SRB assay; conditions: PA-1, 48 h, read-out: GI
[5] = test system: NCI-H522; assay: Growth inhibition of Homo sapiens (human) NCI-H522 cells at 10 uM after 48 hr by SRB assay; conditions: NCI-H522, 48 h, read-out: GI
[6] = test system: Rattus norvegicus; assay: Anti-inflammatory activity in Charles Foster albino Rattus norvegicus (rat) assessed as inhibition of carrageenan-induced paw edema at 50 mg/kg, po […] measured up to 3 hr relative to control

Row | Compound | inhibition of growth at 10 µM [1] [%] | inhibition of growth at 10 µM [2] [%] | inhibition of growth at 10 µM [3] [%] | inhibition of growth at 10 µM [4] [%] | inhibition of growth at 10 µM [5] [%] | inhibition in vivo at 50 mg/kg [6] [%]
1 | CN(C)c1ccc(C2CC(c3ccccn3)=NN2)cc1 (centres undefined) | 29 | 5 | 3 | 21 | 34 | 18
2 | COc1cc(-c2nc(-c3ccccn3)no2)ccc1O | 39 | 3 | 33 | 30 | 48 | 24
3 | O=c1[nH]cc(F)c(=O)[nH]1 [FLUOROURACIL] | 18 | 8 | 5 | 10 | 24 | 
4 | O=P1(N(CCCl)CCCl)NCCCO1 (centres undefined) [CYCLOPHOSPHAMIDE ANHYDROUS] | 14 | 5 | 18 | 4 | 4 | 
5 | CN(C)c1ccc(C2CC(c3ccncc3)=NN2c2ccccc2)cc1 (centres undefined) | 35 | 6 | 7 | 24 | 32 | 32
6 | COc1ccc(OC)c(C2CC(c3ccccn3)=NN2c2ccccc2)c1 (centres undefined) | 20 | 9 | 12 | 18 | 16 | 27
7 | COc1ccc(OC)c(C2CC(c3ccncc3)=NN2)c1 (centres undefined) | 34 | 28 | 19 | 24 | 24 | 13
8 | C[C@@H]1C[C@@H]([C@H](O)CC2CC(=O)NC(=O)C2)C(=O)[C@@H](C)C1 [CYCLOHEXIMIDE] | 5 | 3 | 9 | 51 | 13 | 
9 | COc1ccc(OC)c(-c2nc(-c3ccccn3)no2)c1 | 33 | 5 | 37 | 25 | 23 | 28
10 | CN(C)c1ccc(C2CC(c3cccnc3)=NN2)cc1 (centres undefined) | 35 | 6 | 15 | 36 | 25 | 22
11 | COc1ccc(OC)c(C2CC(c3cccnc3)=NN2)c1 (centres undefined) | 34 | 4 | 13 | 31 | 40 | 15
12 | COc1cc(-c2nc(-c3cnccn3)no2)ccc1O | 20 | 1 | 35 | 20 | 20 | 26
13 | COc1ccc(OC)c(-c2nc(-c3ccncc3)no2)c1 | 27 | 2 | 25 | 19 | 10 | 35
14 | CN(C)c1ccc(C2CC(c3ccncc3)=NN2)cc1 (centres undefined) | 29 | 3 | 21 | 26 | 28 | 0
15 | COc1ccc(OC)c(-c2nc(-c3cnccn3)no2)c1 | 17 | 7 | 41 | 26 | 23 | 11
16 | CC(C)Cc1ccc(C(C)C(=O)O)cc1 (centres undefined) [IBUPROFEN] |  |  |  |  |  | 39
17 | COc1ccc(OC)c(C2CC(c3ccncc3)=NN2c2ccccc2)c1 (centres undefined) | 32 | 5 | 37 | 31 | 29 | 18
18 | CN(C)c1ccc(C2CC(c3ccccn3)=NN2c2ccccc2)cc1 (centres undefined) | 24 | 12 | 41 | 16 | 26 | 35
19 | COc1ccc(OC)c(C2CC(c3cccnc3)=NN2c2ccccc2)c1 (centres undefined) | 26 | 7 | 22 | 32 | 32 | 24
20 | COc1ccc(OC)c(C2CC(c3ccccn3)=NN2)c1 (centres undefined) | 23 | 10 | 26 | 25 | 28 | 15
21 | COc1cc(-c2nc(-c3ccncc3)no2)ccc1O | 13 | 5 | 34 | 32 | 25 | 14
22 | CN(C)c1ccc(C2CC(c3cccnc3)=NN2c2ccccc2)cc1 (centres undefined) | 32 | 1 | 33 | 20 | 20 | 34
